Literature values in patent US10314836B2, “Quinoline carboxamides for use in the treatment of multiple myeloma” (Active Biotech AB, priority 2014, dated 2019).

System: castrate resistant prostate cancer (CRPC) metastatic to the bone
Settings: oral treatment

## COc1cccc2c1c(O)c(C(=O)N(C)c1ccc(C(F)(F)F)cc1)c(=O)n2C [tasquinimod, 4-hydroxy-5-methoxy-N,1-dimethyl-2-oxo-N-[4-(trifluoromethyl)phenyl]-1,2-dihydroquinoline-3-carboxamide]
  effect on overall survival: lack a sufficient effect on overall survival
